Source: patent US20250339520A1, “COMPOSITIONS AND METHODS FOR USE IN KRAS-TARGETED THERAPIES FOR THE TREATMENT OF CANCER” (RUTGERS, THE STATE UNIVERSITY OF NEW JERSEY, priority 2024, published 2025)

Columns and labels:
NFAT5 = assay: Western blot of NFAT5 expression under KRN2; format: cell-based; conditions: PDAC cells, dose-dependent western blot
Protocol: (§1) Antibody information can be found in Table 2. Western blot analysis, IP, co-IP, and IHC staining were conducted following standard protocols. Human TMA slides were purchased from Biomax. Cell fractionation and Masson's Trichrome Staining were carried out using commercial kits, adhering to manufacturers' protocols. MS analysis of proteins pulled down by endogenous SMAD2, SMAD3, SMAD4, NFAT5, and IgG was performed by the Proteomics Core Facility at Rutgers New Jersey Medical School. Specifically, IP samples were subjected to SDS-PAGE separation. Each sample's gel lane was excised for in-gel trypsin digestion, and the resulting peptides were analyzed using LC-MS/MS on an Orbitrap Fusion Lumos Tribrid mass spectrometer coupled with the Ultimate 3000 nano-LC system (Thermo Scientific). MS/MS spectra were searched against the UniProt mouse database (55,336 sequences, downloaded 8/30/2021) using the Sequest search engine through the Proteome Discoverer platform (version 2.4) with a false discovery rate less than 1% for both proteins and peptides. Protein abundance ratios were determined using the Label-Free Quantitation (LFQ) method.

iKPC PDAC cells [1] = assay: Cancer spheroid formation, TGFβ-driven KRAS* bypass; format: cell-based, mouse
Protocol: (§2) Human cell lines MIA PaCa-2 and Panc 04.03 were purchased from the American Type Culture Collection (ATCC) and cultured in DMEM supplemented with 10% FBS and RPMI supplemented with 15% FBS and 20 Units/ml human recombinant insulin, respectively. Mouse PDAC cells were isolated from spontaneous tumors developed in iKPC or KPC mice. KPC cell lines were sustained in RPMI (Gibco) with 10% FBS (Gibco), while iKPC cell lines were cultured in RPMI with 10% Tet-approved FBS (Gibco) and doxycycline (VWR, […]). Escaper tumor cell lines were maintained in RPMI with 10% Tet-approved FBS (Gibco). For cancer spheroid culture, cells were mixed with 50 L growth factor-reduced Matrigel (Corning) and plated in 24-well low-attachment cell culture plates (Nunc). Medium was added on top of the solidified Matrigel. We monitored both spheroid size and number for spheroid growth assays. For counting spheroid numbers, we used a cut-off of 100 m in diameter or specified, depending on the time and cell type. For measuring spheroid size, ImageJ was used. Monthly mycoplasma detection (Lonza) was performed to ensure the absence of contamination.

[2] = tested on: KPC [1860], Mia PaCa-2, and Panc 04.03 PDAC cells; assay: Cancer spheroid formation under KRASi; format: cell-based, mouse and human
Protocol: as §2

AsPC-1 = assay: Cancer spheroid formation under KRASi, SMAD4-deficient cells; format: cell-based, human; conditions: for Response of spheroid formation to TGFβ1 or TGFβRi: SMAD4-deficient, under G12Di MRTX1133, TGFβ 0.5 ng/ml, SB505124 1 μM
KPC PDAC cells [3] = assay: Orthotopically transplanted KPC PDAC model with pancreatitis induction; format: in vivo, mouse
Protocol: (§3) For allograft or xenograft tumor models, human or mouse PDAC cells were transplanted orthotopically or subcutaneously into recipient C57BL/6 or nude mice at a concentration of 500,000 cells per injection, as specified in the figures. The cells were resuspended in Opti-MEM and combined with growth factor-reduced Matrigel (Corning) at a 1:1 ratio.
(§4) For bioluminescence imaging, each mouse received a 100 L injection of D-Luciferin (15 mg/mL, i.p., Perkin Elmer). After a 10-minute interval, mice were imaged using the IVIS Spectrum Imaging System, and images were acquired and analyzed using Living Image 4.3 software.

KPC PDAC cells [4] = assay: KPC transplanted (allograft) model, KRN2 and MRTX1133; format: in vivo
Protocol: as §3, §4

MIA PaCa-2 = MIA PaCa-2 orthotopic xenograft model; format: in vivo
From the text: as §3

[5] = tested on: KRAS*-independent escaper tumor cells E725; assay: Escaper tumor growth, E725 cells subcutaneous in nude mice; format: in vivo, mouse; conditions: KRN2 3 mg/kg QD vs vehicle; day 28
From the text: as §3

iKPC spheroids [6] = assay: RNA-seq / GSEA in TGFβ-treated, KRAS*-depleted iKPC spheroids; format: cell-based, mouse; conditions: inhibition of NFAT5 by KRN2
Protocol: (§5) RNA extraction from 2-D or 3-D cultured cell samples was conducted using the RNA Extraction Kit from Qiagen. Matrigel-based 3-D cells were isolated using Cell Recovery Solution from Corning. RNA concentration was assessed using NanoDrop 2000. The RNA samples were either sent for RNA-seq analysis to the Genomic Center at Rutgers or Genewiz (Azenta), or reverse transcribed for qRT-PCR analysis. The preparation of cDNA utilized 5× All-In-One RT MasterMix from Applied Biological Materials, and the PCR reactions were prepared with SYBR Green PCR Master Mix from Applied Biosystems or Bio-Rad. qRT-PCR was executed on the CFX Opus 96 (Bio-Rad), with statistical analysis conducted using GraphPad Prism. For mRNA sequencing, the parameters were NGS-75 nt Paired End, utilizing the Illumina Next Generation Sequencing instrument.
GSEA was performed using GSEA software (4.3.2).

[7] = tested on: KRAS*-independent escaper tumor cell lines from iKPC mice; assay: KRAS*-independent escaper spheroid growth; format: cell-based, mouse; conditions: SB505124 3 μM; hybrid or QM-like phenotype
Protocol: as §2

S100a4 promoter = assay: Luciferase reporter assay under the S100a4 promoter; format: cell-based, mouse; conditions: KRAS*-depleted iKPC PDAC cells
Protocol: Mouse S100a4 promoter was cloned into pGL4.12[iluc2CP] vector (Promega). Renilla luciferase vector (Promega) was used as the internal control. pGL4.12 vector and Renilla luciferase vector were co-transfected into iKPC PDAC cells using Lipofectamine 2000 (Invitrogen). After 24 hours, the medium was replaced, and cells were subjected to various treatments for an additional 24 hours. Subsequently, cells were collected for luciferase reporter assay using the Dual-Luciferase Reporter Assay Kit (Promega) according to the manufacturer's instructions. The firefly luciferase signal was normalized to Renilla luciferase prior to comparison among different treatment groups.

iKPC PDAC cells [8] = assay: Gene expression changes in iKPC cells post TGFβ treatment; format: cell-based, mouse
Protocol: as §5

iKPC spheroids [9] = assay: Western blot of S100A4, NFAT5 and EMT TFs in iKPC cells/spheroids; format: cell-based, mouse; conditions: TGFβ
Protocol: as §1

iKPC mice = assay: Pancreatitis-induced spontaneous tumor relapse in iKPC mice; format: in vivo, mouse; conditions: CAE 100 μg/kg after dox withdrawal (KRAS* off); less than or around a year after treatment; control mice remained tumor-free
Protocol: The iKPC and KPC PDAC mouse models were established and described previously^7,19. They were bred in pure C57BL/6 background. Doxycycline (dox) water (2 mg/mL, ad libitum) was administrated at 4-6 weeks of mouse age to activate transgenic KRAS^G12D expression in iKPC mice. The C57BL/6 mice and nude mice of both sexes were purchased from the Jackson Laboratory and employed to ensure matching sexes of the cell lines.
For the induction of spontaneous tumor relapse in iKPC mice, the withdrawal of dox water was performed to cease KRAS* expression when the tumor diameter reached approximately 1 cm.

## COc1ccc2c(Cc3ccccc3F)c3[n+](cc2c1OC)CCc1cc2c(cc1-3)OCO2.[Cl-] [KRN2]
NFAT5
  Concentration at which Nfat5 expression is suppressed: higher than 0.3 μM
iKPC PDAC cells [1]; KRN2 1 μM, TGFβ 0.5 ng/ml, three iKPC cell lines
  TGFβ-driven KRAS* bypass (spheroid formation): impairment of TGFβ-driven KRAS* bypass
[2]; KRN2 1 μM + MRTX1133 0.03 μM (KPC), KRN2 0.3 μM + ARS-1620 5 μM (MIA PaCa-2)
  KRASi persistent cancer spheroid formation: attenuation of KRASi persistent cancer spheroid formation
AsPC-1; KRN2 0.3 μM + MRTX1133 0.3 μM
  KRASi persistent cancer spheroid formation, SMAD4-deficient cells: excluding SMAD4-deficient cancer spheroid formation
KPC PDAC cells [3]; MRTX1133 10 mg/kg BID + CAE 100 μg/kg + KRN2 3 mg/kg QD, KPC 1860, day 21
  Chronic pancreatitis-induced KRASi resistance: blockage of chronic pancreatitis-induced KRASi resistance
KPC PDAC cells [4]; KRN2 3 mg/kg QD in combination with MRTX1133 10 mg/kg QD
  Mouse allograft tumor growth: inhibition of mouse allograft tumor growth in combination with KRASi
KPC PDAC cells [4]; KRN2 monotherapy 3 mg/kg QD, immune-competent mice
  Mouse survival: prolonged mouse survival
KPC PDAC cells [4]; KRN2 vs vehicle control
  Tumor differentiation (H&E): induced tumor differentiation
KPC PDAC cells [4]; allograft model, during treatment
  Systemic toxicity (mouse body weight): minimal systemic toxicities
MIA PaCa-2; KRN2 3 mg/kg QD with G12Ci MRTX849 100 mg/kg QD, day 28
  Human xenograft tumor growth: reduction of human xenograft tumor growth cooperatively with KRASi
MIA PaCa-2; xenograft model, during treatment
  Systemic toxicity (mouse body weight): minimal systemic toxicities
[5]
  Escaper tumor growth in vivo: restriction of escaper tumor growth in vivo
iKPC spheroids [6]
  Gene sets upregulated (GSEA): upregulating genes associated with fatty acid metabolism and mTORC1 signaling
  Gene signatures suppressed (GSEA): suppressed EMT and NFxB gene signatures

## C#Cc1c(F)ccc2cc(O)cc(-c3ncc4c(N5CC6CCC(C5)N6)nc(OC[C@@]56CCCN5C[C@H](F)C6)nc4c3F)c12 [MRTX1133]
KPC PDAC cells [3]; MRTX1133 10 mg/kg BID + CAE 100 μg/kg
  Tumor growth under G12Di with pancreatitis induction: leads to resistance
KPC PDAC cells [3]; MRTX1133 10 mg/kg, BID
  Tumor growth, G12Di vs vehicle: significantly reduces tumor growth

## Cc1cccc(-c2[nH]c(C(C)(C)C)nc2-c2ccc3c(c2)OCO3)n1 [SB505124]
[2]; SB505124 3 μM with MRTX1133 (KPC, Panc 04.03) or ARS-1620 (MIA PaCa-2)
  Cancer spheroid formation, TGFβRi combined with KRASi: eradication of cancer spheroids
AsPC-1
  Response of spheroid formation to TGFβ1 or TGFβRi: did not exhibit a response
[7]
  Sensitivity of escaper spheroids to TGFβRi: hypersensitivity

## TGFβ1: recombinant human and mouse TGFβ1 (Peprotech)
iKPC PDAC cells [1]; TGFβ1 treatment, KRAS* off
  KRAS* bypass in spheroid assays: efficiently promoted several iKPC PDAC cell lines to bypass KRAS*
iKPC PDAC cells [1]; TGFβ1 treatment, cell lines with higher Cdkn2a and Cdkn2b expression
  KRAS* bypass in spheroid assays, iKPC cell lines 251, 276: unable to bypass KRAS*
[2]; TGFβ 0.5 ng/ml with MRTX1133 or ARS-1620, cells with intact TGFβ pathway
  Formation of cancer spheroids resistant to KRASi: actively promoted the formation of cancer spheroids resistant to KRASi
AsPC-1
  Response of spheroid formation to TGFβ1 or TGFβRi: did not exhibit a response
S100a4 promoter
  S100a4 promoter luciferase activity under TGFβ: activated S100a expression
iKPC PDAC cells [8]; TGFβ treatment, KRAS*-depleted iKPC PDAC cells
  Ccl2 expression elevation: more than 700 fold
iKPC PDAC cells [8]; TGFβ, KRAS*-depleted iKPC spheroids
  S100a4 expression: upregulated
iKPC spheroids [9]
  NFAT5 protein level: upregulates NFAT5
iKPC spheroids [9]; cancer spheroids
  S100A4 protein level: upregulation of S100A4

## caerulein
iKPC mice
  CAE-treated mice that developed escaper tumors: at least 36%
KPC PDAC cells [3]; CAE 100 μg/kg, C57BL/6 mice, BLI, tumor weight, tumor volume
  Tumor growth, CAE vs vehicle control: promotes KPC PDAC tumor growth
KPC PDAC cells [3]; CAE;G12Di-treated tumors relative to vehicle;G12Di controls
  Tumor morphology (H&E): lost the ductal-like phenotype and were more undifferentiated
KPC PDAC cells [3]; independent study, MRTX1133 10 mg/kg BID, CAE 100 μg/kg
  Tumor progression, CAE;G12Di vs vehicle;G12Di: significantly faster tumor progression
KPC PDAC cells [3]; tumors under MRTX1133
  SMAD3 phosphorylation and EMT transcription factors in collected tumors (western blot): induced SMAD3 phosphorylation and the upregulation of EMT transcription factors (TFs) such as SNAI2, ZEB1, and ZEB2

## recombinant S100A4 protein: recombinant mouse S100A4 (R&D) added to the culture media
iKPC PDAC cells [1]; added to culture media after NFAT5 inhibition (KRN2 1 μM) or knockdown of Nfat5 or S100a4
  Rescue of TGFβ-induced, KRAS*-independent cancer spheroid growth: rescued TGFβ-induced, KRAS*-independent cancer spheroid growth
